“And” between values parts separate entries of the source, which are not always exact repeats. Equal entries are not always repeated. Structures can show the parent of a compound that is named as a salt. Where two headings read alike, the source gives them in different places.
Assays:
[1] = Electrotransport of sodium ketoprofen with enhancer (Example 5); format: in vitro ADME, human; conditions: for effect of 20% ethanol solvent on enhancer performance (in words) / effect on ketoprofen mass flux (in words) / effect on skin conductivity (in words): 100 mM ketoprofen; for effect of 20% ethanol solvent on enhancer performance (in words): 20 wt % ethanol/water; for effect on ketoprofen mass flux (in words) / effect on skin conductivity (in words): water alone
Description: (§1) Each floating epidermis was stretched essentially flat.
Sodium ketoprofen in aqueous solution forms an univalent anionic anti-inflammatory agent. The electrotransport delivery of 100 mM ketoprofen in the presence of cationic and non-ionic surfactants was tested under the conditions described in Example 1. The enhancers used were laurylamine and dimethyl lauramide. Two sets of tests were conducted. The first in aqueous solution, and the second in 20 wt % ethanol/water solution.

[2] = for effect on metoclopramide mass flux (in words) / effect on skin resistance / resistivity (in words): compared with control without enhancer; for Normalized Cell Voltage (after 5 hrs) / Normalized Metoclopramide Mass Flux (after 5 hrs): metoclopramide HCl 100 mg/ml, 100 μA/cm^2, 32° C.; for enhancer performance (in words): metoclopramide electrotransport
[3] = hydrophile-lipophile balance of the enhancer; cited from earlier work
[4] = Electrotransport of di-sodium cromolyn with enhancer (Example 4); format: in vitro ADME, human; conditions: concentration not given in b26; for lowering of skin resistivity: cromolyn donor, dodecylpyrrolidone 100 mM; for increase of cromolyn flux: dodecylpyrrolidone 100 mM in donor
Text: as §1
Di-sodium cromolyn, when in aqueous solution, forms a divalent anion. The experimental conditions were as described in Example 1, except the cromolyn donor solution was placed in the cathodic compartment 46 and the Dulbecco's phosphate buffered saline receptor solution was placed in the anodic compartment 44; and the stratum corneum layer of skin disk 42 was mounted to face the cathodic compartment 46.
Dodecylpyrrolidone, when added to the donor solution, at a concentration of 100 mM, increased cromolyn flux by 50 to 100% and lowered skin resistivity by 30 to 70%.

[5] = for Normalized Cell Voltage (after 5 hrs): relative to no ethanol (1.00)
Description: as §1
The prior art teaches that ethanol can be used to enhance both passive and electrically-assisted transdermal drug delivery. […] The agent utilized, metoclopramide HCl, was placed in the donor compartment at about 100 mg metoclopramide/ml, and Dulbecco's phosphate buffered saline (pH 7) was placed in the receptor compartment. The system was maintained at 32° C. and a constant electric current of 100 μA/cm^2 was applied throughout the procedure.

[6] = tetracaine; electrotransport pretreatment with the enhancer
Description: Solutions of the drug to be transported through the skin disks 42, and each of the electrotransport enhancers to be tested were placed at different times in the anodic donor compartment 44. Dulbecco's phosphate buffered saline (approximately 0.1 5N NaCl, with minor amounts of other ions, pH 7.0) was placed in the cathodic receptor compartment 46. The skin resistance was calculated from the voltages applied by the galvanostat according to Ohm's law:
The electrotransport of tetracaine was also conducted with surfactant flux enhancers, such as decyl methyl sulfoxide.

[7] = Micelle formation of tetracaine; format: physicochemical
Description: Tetracaine is a much less electrophilic molecule than metoclopramide since it is positively charged at its tertiary amine group, but the rest of the molecule is very hydrophobic. Concentrations of tetracaine higher than 20 mg/ml (75 mM) lead to the formation of micelles, due to the highly surfactant nature of the drug. Lower concentrations of tetracaine may lead to a better showing of the effect of the enhancer.

[8] = relative to control without enhancer (1.00), enhancer 10 mM
[9] = relative to control (1.00), dodecylpyrrolidone 100 mM

CCCCCCCCCCCC(=O)N(C)C [Dimethyl lauramide]
effect of 20% ethanol solvent on enhancer performance (in words) [1]: improved the performance of both enhancers | effect on ketoprofen mass flux (in words) [1]: increased mass flux | effect on skin conductivity (in words) [1]: increased mass flux and skin conductivity | effect on ketoprofen flux and conductivity (in words) ([1]; dimethyl lauramide added to ketoprofen, general description): increase in both flux and conductivity | effect on metoclopramide mass flux (in words) [2]: almost doubling of the amount of the drug delivered | skin resistance relative to control ([2]; metoclopramide HCl donor, dimethyl lauramide added): about one-half that of the control | Normalized Cell Voltage (after 5 hrs) [2, 8]: .45 | Normalized Metoclopramide Mass Flux (after 5 hrs) [2, 8]: 1.87 | Normalized Cell Voltage (after 5 hrs) ([2]; relative to control without enhancer (1.00), enhancer 10 mM, listed as dimethyl lauramide): 0.45 | HLB No. [3]: 8

CCCCCCCCCCCCN1CCCC1=O [Dodecyl pyrrolidone]
lowering of skin resistivity ([4]; listed as Dodecylpyrrolidone): 30 to 70% | lowering of skin resistivity ([4]; listed as dodecyl pyrrolidone): more than 30% | increase of cromolyn flux ([4]; listed as Dodecylpyrrolidone): 50 to 100% | increase of cromolyn flux ([4]; listed as dodecyl pyrrolidone): more than 50% | enhancer performance (in words) ([2]; listed as dodecyl pyrrolidone): superior characteristics | enhancer performance (in words) ([2]; listed as dodecylpyrrolidone): very effective enhancers | Normalized Cell Voltage (after 5 hrs) [2, 9]: .35 | Normalized Metoclopramide Mass Flux (after 5 hrs) [2, 9]: 1.68 | HLB No. [3]: 8

CCO [Ethanol, ethanol]
effect on mass flux of metoclopramide (in words) [5]: decreased the mass flux of metoclopramide | effect on skin conductivity (in words) ([5]; 10 to 30 wt % ethanol): decreased the mass flux of metoclopramide and the skin conductivity | Normalized Cell Voltage (after 5 hrs) ([5]; ethanol 10 wt %): 0.82 | Normalized Cell Voltage (after 5 hrs) ([5]; ethanol 20 wt %): 0.70 | Normalized Cell Voltage (after 5 hrs) ([5]; ethanol 30 wt %): 0.78

CCCCCCCCCCCCN [Lauryl amine]
effect of 20% ethanol solvent on enhancer performance (in words) [1]: improved the performance of both enhancers | effect on ketoprofen mass flux (in words) [1]: increased mass flux | effect on skin conductivity (in words) [1]: increased mass flux and skin conductivity | effect on metoclopramide mass flux (in words) [2]: significantly decreased the flux | Normalized Cell Voltage (after 5 hrs) [2, 8]: .22 | Normalized Metoclopramide Mass Flux (after 5 hrs) [2, 8]: 0.136 | HLB No. [3]: 11

CCCCCCCCCCCCOC(=O)C(C)O (stereo not shown) [Lauryl lactate, reference compound]
effect on skin resistance / resistivity (in words) ([2]; metoclopramide HCl donor): reduced skin resistivity | Normalized Cell Voltage (after 5 hrs) [2, 8]: .92 | HLB No. [3]: 4.7

CCCCCCCCCCCCOS(=O)(=O)[O-].[Na+] [Sodium lauryl sulfate]
effect on metoclopramide mass flux (in words) [2]: enhanced mass flux | enhancer performance (in words) [2]: superior characteristics | Normalized Cell Voltage (after 5 hrs) [2, 8]: .76 | Normalized Metoclopramide Mass Flux (after 5 hrs) [2, 8]: 1.64 | HLB No. [3]: 40

CCCCCCCCCC[S+](C)[O-] (stereo not shown) [n-Decyl methyl sulfoxide]
Normalized Cell Voltage (after 5 hrs) [2, 8]: .44 | decrease of cell voltage (in words) [6]: highly beneficial | HLB No. [3]: 32

CCCCNc1ccc(C(=O)OCCN(C)C)cc1 [tetracaine HCl]
concentration leading to the formation of micelles [7]: higher than 20 mg/ml and > 75 mM

Sorbitan monolaurate [reference compound]
effect on skin resistance / resistivity (in words) ([2]; metoclopramide HCl donor): fail to have a significant effect | Normalized Cell Voltage (after 5 hrs) [2, 8]: .98 | HLB No. [3]: 8.6

lauramphocarboxy propionate [Lauramphocarboxypropionate, reference compound]
effect on skin resistance / resistivity (in words) ([2]; metoclopramide HCl donor): did not appear to affect | Normalized Cell Voltage (after 5 hrs) [2, 8]: .93 | HLB No. [3]: 54

Reference: US5668170A, “Composition and method enhancing transdermal electrotransport agent delivery” (ALZA Corporation, priority 1996, dated 1997)
